Results on 14 compounds are retold here after patent US11427558B1, “Indazoles and azaindazoles as LRRK2 inhibitors” (ESCAPE Bio, Inc., priority 2019, dated 2022).

The target in experiment [1] is Recombinant wild type LRRK2 protein (Homo sapiens (Human), UniProt Q5S007). Briefly: LRRK2 kinase activity, LanthaScreen TR-FRET assay (wild type). It is filed as biochemical. The settings on record: LRRKtide 400 nM, 25 μM ATP, 60 min; read-out: LRRK2 WT IC50. An outline of the steps:
(§1)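 Recombinant human wild-type or G2019S LRRK2 phosphorylated fluorescein-labelled LRRKtide (ERM-based) with ATP and serially diluted compound for 60 min at room temperature.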
Background: Time-resolved FRET reads energy transfer from a long-lived donor to a nearby acceptor.

Experiment [2] deals with Recombinant G2019S-LRRK2 protein (Homo sapiens (Human), UniProt Q5S007, G2019S). Briefly: LRRK2 kinase activity, LanthaScreen TR-FRET assay (G2019S). It counts as biochemical. The settings on record: LRRKtide 400 nM, 25 μM ATP, 60 min. An outline of the steps:
as §1

Sequence of Recombinant G2019S-LRRK2 protein (Q5S007 whole entry G2019S): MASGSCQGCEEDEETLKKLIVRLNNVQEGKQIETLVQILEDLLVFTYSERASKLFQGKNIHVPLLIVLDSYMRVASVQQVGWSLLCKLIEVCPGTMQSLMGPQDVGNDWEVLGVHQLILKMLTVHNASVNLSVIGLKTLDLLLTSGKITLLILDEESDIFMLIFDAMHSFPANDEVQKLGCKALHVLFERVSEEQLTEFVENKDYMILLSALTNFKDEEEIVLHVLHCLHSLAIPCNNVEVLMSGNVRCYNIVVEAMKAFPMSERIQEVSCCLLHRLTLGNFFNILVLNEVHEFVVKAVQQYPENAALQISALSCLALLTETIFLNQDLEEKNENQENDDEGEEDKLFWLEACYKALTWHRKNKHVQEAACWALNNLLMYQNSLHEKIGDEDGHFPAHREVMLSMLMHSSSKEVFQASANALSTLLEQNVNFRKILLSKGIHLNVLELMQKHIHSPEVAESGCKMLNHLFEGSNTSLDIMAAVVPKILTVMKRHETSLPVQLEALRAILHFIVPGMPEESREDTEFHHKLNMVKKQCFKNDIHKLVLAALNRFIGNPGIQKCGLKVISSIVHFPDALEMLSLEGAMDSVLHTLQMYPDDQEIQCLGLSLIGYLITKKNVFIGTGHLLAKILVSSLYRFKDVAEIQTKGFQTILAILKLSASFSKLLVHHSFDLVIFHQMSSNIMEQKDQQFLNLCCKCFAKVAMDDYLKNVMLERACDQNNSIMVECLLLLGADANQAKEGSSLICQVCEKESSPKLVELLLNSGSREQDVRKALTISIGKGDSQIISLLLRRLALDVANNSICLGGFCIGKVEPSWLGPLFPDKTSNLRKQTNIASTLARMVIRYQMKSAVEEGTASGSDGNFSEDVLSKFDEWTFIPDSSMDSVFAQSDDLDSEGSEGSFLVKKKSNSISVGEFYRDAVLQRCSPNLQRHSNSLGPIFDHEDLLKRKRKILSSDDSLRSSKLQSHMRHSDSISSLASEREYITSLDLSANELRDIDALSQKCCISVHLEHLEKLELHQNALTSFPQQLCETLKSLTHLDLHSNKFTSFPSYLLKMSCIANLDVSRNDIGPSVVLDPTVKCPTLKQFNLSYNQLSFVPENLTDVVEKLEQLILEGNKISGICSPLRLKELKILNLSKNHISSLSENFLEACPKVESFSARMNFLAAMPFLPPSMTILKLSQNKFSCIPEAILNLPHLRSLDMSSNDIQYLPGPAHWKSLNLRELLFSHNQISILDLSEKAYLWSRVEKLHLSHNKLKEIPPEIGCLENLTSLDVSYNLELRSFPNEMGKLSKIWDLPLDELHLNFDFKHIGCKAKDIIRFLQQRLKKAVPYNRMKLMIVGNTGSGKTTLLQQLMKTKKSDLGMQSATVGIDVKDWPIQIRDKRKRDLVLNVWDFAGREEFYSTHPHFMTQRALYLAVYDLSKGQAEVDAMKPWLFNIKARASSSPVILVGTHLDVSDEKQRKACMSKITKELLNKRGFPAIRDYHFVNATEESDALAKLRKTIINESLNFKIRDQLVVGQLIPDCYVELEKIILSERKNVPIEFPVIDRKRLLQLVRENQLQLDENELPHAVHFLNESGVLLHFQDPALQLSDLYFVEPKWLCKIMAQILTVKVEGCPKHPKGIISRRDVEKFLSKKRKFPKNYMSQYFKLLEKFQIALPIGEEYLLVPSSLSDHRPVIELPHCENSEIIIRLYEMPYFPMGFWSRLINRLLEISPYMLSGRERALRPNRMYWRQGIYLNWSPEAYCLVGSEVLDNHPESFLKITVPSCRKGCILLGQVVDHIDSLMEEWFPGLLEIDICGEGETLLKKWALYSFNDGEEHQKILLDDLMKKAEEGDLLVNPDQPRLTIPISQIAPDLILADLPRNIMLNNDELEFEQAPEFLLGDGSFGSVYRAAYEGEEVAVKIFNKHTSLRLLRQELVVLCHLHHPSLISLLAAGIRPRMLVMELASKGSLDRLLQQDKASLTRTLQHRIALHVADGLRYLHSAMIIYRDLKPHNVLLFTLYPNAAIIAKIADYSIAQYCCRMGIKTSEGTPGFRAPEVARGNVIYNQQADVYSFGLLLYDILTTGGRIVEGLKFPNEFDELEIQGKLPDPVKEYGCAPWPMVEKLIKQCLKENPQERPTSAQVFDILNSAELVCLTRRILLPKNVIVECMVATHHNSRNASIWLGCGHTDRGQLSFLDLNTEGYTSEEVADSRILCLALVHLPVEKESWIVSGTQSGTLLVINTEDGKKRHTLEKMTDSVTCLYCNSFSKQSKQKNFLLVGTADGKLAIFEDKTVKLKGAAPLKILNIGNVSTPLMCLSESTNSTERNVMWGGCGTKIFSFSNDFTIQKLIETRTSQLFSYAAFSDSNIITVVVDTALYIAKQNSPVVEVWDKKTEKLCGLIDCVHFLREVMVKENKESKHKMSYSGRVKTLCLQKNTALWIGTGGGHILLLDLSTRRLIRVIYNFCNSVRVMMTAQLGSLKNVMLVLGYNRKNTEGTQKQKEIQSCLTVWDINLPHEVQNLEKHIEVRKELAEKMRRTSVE
Sequence of Recombinant wild type LRRK2 protein (Q5S007 whole entry): as the sequence (Q5S007 whole entry G2019S) above, with S2019G counted along it

For orientation: IC50 means the concentration at which inhibition is half-maximal. In the case of `N#Cc1cccc(C(=O)Nc2ccc3[nH]nc(-c4cnn(C(F)F)c4)c3c2)c1C(F)(F)F` [Example 192, 3-Cyano-N-(3-(1-(difluoromethyl)-1H-pyrazol-4-yl)-1H-indazol-5-yl)-2-(trifluoromethyl)benzamide], the IC50 in experiment [1] and in experiment [2] was below 100 nM throughout.

As to `COc1cc(F)cc(-c2n[nH]c3ccc(NC(=O)c4ncc(C#N)cc4C)cc23)c1` [Example 46, 5-Cyano-N-(3-(3-fluoro-5-methoxyphenyl)-1H-indazol-5-yl)-3-methylpicolinamide], the 50% inhibitory concentration (IC50) in experiment [1] was 100 to 1000 nM; in experiment [2], below 100 nM.

For the compound `Cc1c(C#N)ccc(F)c1C(=O)Nc1ccc2[nH]nc(C)c2c1` [Example 316, 3-Cyano-6-fluoro-2-methyl-N-(3-methyl-1H-indazol-5-yl)benzamide], the half-inhibitory concentration (IC50) in experiment [1] was 100 to 1000 nM; in experiment [2] it was below 100 nM.

With `N#Cc1cccc(C(=O)Nc2ccc3[nH]nc(-c4ccoc4)c3c2)c1C(F)(F)F` [Example 173, 3-Cyano-N-(3-(furan-3-yl)-1H-indazol-5-yl)-2-(trifluoromethyl)benzamide], the IC50 in experiment [1] and in experiment [2] was below 100 nM in each case.

Take `Cc1c(C#N)cnc(C(=O)Nc2ccc3[nH]nc(/C=C4/CCOC4)c3c2)c1C` [Example 261, (Z)-5-Cyano-N-(3-((dihydrofuran-3(2H)-ylidene)methyl)-1H-indazol-5-yl)-3,4-dimethylpicolinamide]: the results for the IC50 in experiment [1] and in experiment [2] were 1000 to 10000 nM and below 100 nM, respectively.

In the case of `Cc1cc(C#N)cnc1C(=O)Nc1ccc2[nH]nc(-c3ccc(N4CCOCC4)cc3)c2c1` [Example 70, 5-Cyano-3-methyl-N-(3-(4-morpholinophenyl)-1H-indazol-5-yl)picolinamide], the IC50 in experiment [1] is 100 to 1000 nM; in experiment [2] it was below 100 nM.

With `Cc1cc(C#N)cnc1C(=O)Nc1ccc2[nH]nc(NC(=O)c3ccccc3)c2c1` [Example 135, N-(3-Benzamido-1H-indazol-5-yl)-5-cyano-3-methylpicolinamide], the IC50 in experiment [1] was in the range of 1000 to 10000 nM; in experiment [2], 100 to 1000 nM.

Turning to `COc1cccc(-c2n[nH]c3ccc(NC(=O)c4ncc(C#N)cc4C)cc23)c1` [Example 53, 5-Cyano-N-(3-(3-methoxyphenyl)-1H-indazol-5-yl)-3-methylpicolinamide], the IC50 in experiment [1] was 100 to 1000 nM; in experiment [2], below 100 nM.

With `Cc1c(C#N)cnc(C(=O)Nc2ccc3[nH]nc(-c4cnn(C5COC5)c4)c3c2)c1C` [Example 221, 5-Cyano-3,4-dimethyl-N-(3-(1-(oxetan-3-yl)-1H-pyrazol-4-yl)-1H-indazol-5-yl)picolinamide], the IC50 in experiment [1] and in experiment [2] was below 100 nM in each case.

For the compound `Cc1cc(C#N)cnc1C(=O)Nc1ccc2[nH]nc(-c3cn(C)nn3)c2c1` [Example 241, 5-Cyano-3-methyl-N-(3-(1-methyl-1H-1,2,3-triazol-4-yl)-1H-indazol-5-yl)picolinamide], the IC50 in experiment [1] and in experiment [2] was 100 to 1000 nM in each case.

Turning to `Cc1nccc(-c2n[nH]c3ccc(NC(=O)c4ncc(C#N)c(C)c4C)cc23)n1` [Example 237, 5-Cyano-3,4-dimethyl-N-(3-(2-methylpyrimidin-4-yl)-1H-indazol-5-yl)picolinamide], the IC50 in experiment [1] and in experiment [2] was below 100 nM throughout.

Take `Cc1ncc(-c2n[nH]c3ccc(NC(=O)c4ncc(C#N)cc4C)cc23)o1` [Example 129, 5-Cyano-3-methyl-N-(3-(2-methyloxazol-5-yl)-1H-indazol-5-yl)picolinamide]: the concentration for half-maximal inhibition (IC50) in experiment [1] and in experiment [2] was below 100 nM throughout.

As to `N#Cc1ccc(F)c(C(=O)Nc2ccc3[nH]nc(-c4ccoc4)c3c2)c1F` [Example 120, 3-Cyano-2,6-difluoro-N-(3-(furan-3-yl)-1H-indazol-5-yl)benzamide], the IC50 in experiment [1] and in experiment [2] was below 100 nM each time.

As to `N#Cc1cnc(C(=O)Nc2ccc3[nH]nc(-c4cnoc4)c3c2)c2c1CCC2` [Example 218, 4-cyano-N-(3-(isoxazol-4-yl)-1H-indazol-5-yl)-6,7-dihydro-5H-cyclopenta[c]pyridine-1-carboxamide], the IC50 was 1000 to 10000 nM in experiment [1] and below 100 nM in experiment [2].
